In PubChem BioAssay AID256 (DTP/NCI, 2004):
“And” between values parts separate entries of the source, which are not always exact repeats. Equal entries are not always repeated. Inconclusive results and toxic doses are left out.

Tested on: CD2F1 mice, L1210 leukemia ip, survival T/C
Experiment: NCI In Vivo Anticancer Drug Screen. Data for tumor model L1210 Leukemia (intraperitoneal) in CD2F1 (CDF1) mice
Details: higher = longer survival
Procedure, shortened: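 Vehicle-treated tumor-bearing mice served as controls (C) for compound-treated mice (T). Reported figure is T divided by C.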

CN(C)/N=N/c1nc[nH]c1C(N)=O was tested, and the T/C (endpoint: mean survival time, dose: 100.0 mg/kg/injection, schedule: Q03DX003 (ip), vehicle: saline) was 120 % of control, the T/C (endpoint: mean survival time, dose: 100.0 mg/kg/injection, schedule: Q03HX016 (ip), vehicle: steriod suspending solution) was 122 % of control and the T/C (endpoint: mean survival time, dose: 100.0 mg/kg/injection, schedule: Q03HX016 (oral), vehicle: steriod suspending solution) was 116 % of control. For the same molecule, the T/C (endpoint: mean survival time, dose: 100.0 mg/kg/injection, schedule: Q04DX003 (ip), vehicle: Klucel (hydroxypropylcellulose) (HPC)) was 114 % of control, the T/C (endpoint: mean survival time, dose: 100.0 mg/kg/injection, schedule: Q04DX003 (ip), vehicle: other) was 114 % of control and 120 % of control and the T/C (endpoint: mean survival time, dose: 100.0 mg/kg/injection, schedule: Q04DX003 (ip), vehicle: saline) was 108 % of control. The T/C (endpoint: mean survival time, dose: 100.0 mg/kg/injection, schedule: Q04DX003 (ip), vehicle: steriod suspending solution) was 116 % of control, the T/C (endpoint: mean survival time, dose: 100.0 mg/kg/injection, schedule: Q04DX003 (oral), vehicle: steriod suspending solution) was 116 % of control and the T/C (endpoint: mean survival time, dose: 100.0 mg/kg/injection, schedule: Q08DX002 (ip), vehicle: steriod suspending solution) was 117 % of control. For the same molecule, the T/C (endpoint: mean survival time, dose: 100.0 mg/kg/injection, schedule: Q08DX002 (oral), vehicle: steriod suspending solution) was 115 % of control, the T/C (endpoint: mean survival time, dose: 150.0 mg/kg/injection, schedule: Q01DX001 (oral), vehicle: saline) was 101 % of control and the T/C (endpoint: mean survival time, dose: 150.0 mg/kg/injection, schedule: Q01DX009 (ip), vehicle: Klucel (hydroxypropylcellulose) (HPC)) was 172 % of control. The T/C (endpoint: mean survival time, dose: 180.0 mg/kg/injection, schedule: Q04DX003 (ip), vehicle: saline) was 114 % of control and 108 % of control, the T/C (endpoint: mean survival time, dose: 182.0 mg/kg/injection, schedule: Q01DX009 (ip), vehicle: Klucel (hydroxypropylcellulose) (HPC)) was 120 % of control and the T/C (endpoint: mean survival time, dose: 200.0 mg/kg/injection, schedule: Q01DX001 (ip), vehicle: distilled water + Tween-80) was 120 % of control. For the same molecule, the T/C (endpoint: mean survival time, dose: 200.0 mg/kg/injection, schedule: Q01DX007 (ip), vehicle: saline) was 159 % of control, the T/C (endpoint: mean survival time, dose: 200.0 mg/kg/injection, schedule: Q01DX009 (ip), vehicle: DMSO) was 174 % of control and the T/C (endpoint: mean survival time, dose: 200.0 mg/kg/injection, schedule: Q01DX009 (ip), vehicle: saline) was 151 % of control. For the same molecule, the T/C (endpoint: mean survival time, dose: 200.0 mg/kg/injection, schedule: Q01DX009 (ip), vehicle: steriod suspending solution) was 157 % of control, the T/C (endpoint: mean survival time, dose: 200.0 mg/kg/injection, schedule: Q01DX009 (ip), vehicle: water) was 118 % of control and the T/C (endpoint: mean survival time, dose: 200.0 mg/kg/injection, schedule: Q01DX009 (oral), vehicle: steriod suspending solution) was 169 % of control. For the same molecule, the T/C (endpoint: mean survival time, dose: 200.0 mg/kg/injection, schedule: Q04DX003 (ip), vehicle: Klucel (hydroxypropylcellulose) (HPC)) was 123 % of control, the T/C (endpoint: mean survival time, dose: 200.0 mg/kg/injection, schedule: Q04DX003 (ip), vehicle: steriod suspending solution) was 116 % of control and the T/C (endpoint: mean survival time, dose: 200.0 mg/kg/injection, schedule: Q04DX003 (oral), vehicle: steriod suspending solution) was 122 % of control. For the same molecule, the T/C (endpoint: mean survival time, dose: 200.0 mg/kg/injection, schedule: Q08DX002 (oral), vehicle: steriod suspending solution) was 118 % of control, the T/C (endpoint: mean survival time, dose: 300.0 mg/kg/injection, schedule: Q01DX001 (oral), vehicle: saline) was 113 % of control and the T/C (endpoint: mean survival time, dose: 364.0 mg/kg/injection, schedule: Q01DX009 (ip), vehicle: Klucel (hydroxypropylcellulose) (HPC)) was 63 % of control. The T/C (endpoint: mean survival time, dose: 400.0 mg/kg/injection, schedule: Q01DX005 (ip), vehicle: other) was 113 % of control, the T/C (endpoint: mean survival time, dose: 400.0 mg/kg/injection, schedule: Q01DX009 (ip), vehicle: water) was 96 % of control and the T/C (endpoint: mean survival time, dose: 400.0 mg/kg/injection, schedule: Q01DX009 (oral), vehicle: steriod suspending solution) was 152 % of control. For the same molecule, the T/C (endpoint: mean survival time, dose: 400.0 mg/kg/injection, schedule: Q08DX002 (ip), vehicle: steriod suspending solution) was 121 % of control, the T/C (endpoint: mean survival time, dose: 600.0 mg/kg/injection, schedule: Q01DX001 (oral), vehicle: saline) was 121 % of control and the T/C (endpoint: mean survival time, dose: 800.0 mg/kg/injection, schedule: Q08DX002 (ip), vehicle: steriod suspending solution) was 164 % of control. The T/C (endpoint: mean survival time, dose: 800.0 mg/kg/injection, schedule: Q08DX002 (oral), vehicle: steriod suspending solution) was 123 % of control, the T/C (endpoint: median survival time, dose: 9.8 mg/kg/injection, schedule: Q03HX008 (ip), vehicle: Klucel (hydroxypropylcellulose) (HPC)) was 105 % of control and the T/C (endpoint: median survival time, dose: 22.2 mg/kg/injection, schedule: Q03HX008 (ip), vehicle: Klucel (hydroxypropylcellulose) (HPC)) was 114 % of control. For the same molecule, the T/C (endpoint: median survival time, dose: 33.3 mg/kg/injection, schedule: Q03HX008 (ip), vehicle: Klucel (hydroxypropylcellulose) (HPC)) was 123 % of control, the T/C (endpoint: median survival time, dose: 48.0 mg/kg/injection, schedule: Q01DX005 (ip), vehicle: Klucel (hydroxypropylcellulose) (HPC)) was 115 % of control and the T/C (endpoint: median survival time, dose: 50.0 mg/kg/injection, schedule: Q02DX005 (ip), vehicle: Klucel (hydroxypropylcellulose) (HPC)) was 121 % of control. The T/C (endpoint: median survival time, dose: 72.0 mg/kg/injection, schedule: Q01DX005 (ip), vehicle: Klucel (hydroxypropylcellulose) (HPC)) was 123 % of control, the T/C (endpoint: median survival time, dose: 100.0 mg/kg/injection, schedule: Q02DX005 (ip), vehicle: Klucel (hydroxypropylcellulose) (HPC)) was 117 % of control and the T/C (endpoint: median survival time, dose: 108.0 mg/kg/injection, schedule: Q01DX005 (ip), vehicle: Klucel (hydroxypropylcellulose) (HPC)) was 124 % of control. For the same molecule, the T/C (endpoint: median survival time, dose: 240.0 mg/kg/injection, schedule: Q01DX001 (ip), vehicle: Klucel (hydroxypropylcellulose) (HPC)) was 115 % of control, the T/C (endpoint: median survival time, dose: 600.0 mg/kg/injection, schedule: Q01DX001 (ip), vehicle: Klucel (hydroxypropylcellulose) (HPC)) was 121 % of control and the T/C (endpoint: median survival time, dose: 900.0 mg/kg/injection, schedule: Q01DX001 (ip), vehicle: Klucel (hydroxypropylcellulose) (HPC)) was 123 % of control.
